Tests used:
Type in all cases: cell-based
[1] = target: T1, BRD9 (Homo sapiens, UniProt Q9H8M2); test: Assay Protocol 2 - Degradation of BRD9 (IF) in MV4-11 cells; parameters: host or cells: MV4-11; conditions: Assay Protocol 2: BRD9 immunofluorescence, 24 hours
T1 sequence (Q9H8M2 1-597): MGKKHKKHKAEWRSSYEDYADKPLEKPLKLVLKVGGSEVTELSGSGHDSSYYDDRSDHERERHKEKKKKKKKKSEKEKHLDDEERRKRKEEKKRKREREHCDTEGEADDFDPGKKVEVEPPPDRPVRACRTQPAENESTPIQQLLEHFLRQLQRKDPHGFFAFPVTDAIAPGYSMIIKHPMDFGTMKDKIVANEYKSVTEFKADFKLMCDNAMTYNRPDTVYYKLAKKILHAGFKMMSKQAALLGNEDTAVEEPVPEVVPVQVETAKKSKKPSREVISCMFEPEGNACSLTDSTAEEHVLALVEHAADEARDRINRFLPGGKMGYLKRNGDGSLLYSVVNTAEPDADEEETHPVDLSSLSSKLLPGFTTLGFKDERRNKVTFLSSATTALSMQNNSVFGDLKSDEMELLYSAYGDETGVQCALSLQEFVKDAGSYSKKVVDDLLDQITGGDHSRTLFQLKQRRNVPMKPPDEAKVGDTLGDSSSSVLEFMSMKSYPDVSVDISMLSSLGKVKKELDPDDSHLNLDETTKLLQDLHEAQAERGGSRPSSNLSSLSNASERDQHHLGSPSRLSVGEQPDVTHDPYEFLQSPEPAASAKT
Method: Assay Protocol 2—Degradation of BRD9 (IF)
A suspension of MV4-11 cells (ATCC CRL-9591) was prepared in phenol red-free assay media (IMDM Thermo Scientific 21056023+10% FBS ATCC 302025) and cells were seeded at 20,000 cells per well (45 μL) in sterile black poly-d-lysine coated 384 well plates (Greiner 781948). Compounds were prepared at 1000× final concentration in DMSO, diluted 1:100 in assay media, and 5 μL compound was added to each well of the cell plate. Cells were incubated for 24 hours at 37° C. with 5% CO2. All the following incubations for immunofluorescence staining were at room temperature. 15 μL of 16% PFA was added to each well (3.7% final concentration) and the cells were fixed for 15 min then washed twice with DPBS. Cells were permeabilised with 0.1% Triton X-100 for 10 min, Triton X-100 was removed, then blocked with 1% BSA in DPBS for 1 hour. Cells were stained with 25 μL anti-BRD9 E4Q3F antibody (CST 48306) diluted 1:25600 in 1% BSA in DPBS for 2-3 hours. Wells were washed twice with DPBS then incubated with 25 μL of 1% BSA containing a 1:1000 dilution of Anti-rabbit Alexa Fluor™ 647 secondary antibody (Thermo Scientific A^21244) and 1 μg/mL Hoechst nuclear counter stain (Abcam ab228551) for 1 hour. Wells were washed twice with DPBS prior to imaging on a Perkin Elmer Operetta CLS with 10× air lens. Images were processed using Harmony High-Content Imaging and Analysis Software (Perkin Elmer) and the mean contrast ratio of Alexa Fluor™ 647 in central nuclei was used to quantify BRD9 protein levels. Data was further analysed using Dotmatics software and % BRD9 remaining was calculated by normalisation to average data from high and low control wells (cells treated with DMSO or 100 nM CFT-8634 respectively).

[2] = target: T1, BRD9; test: Assay Protocol 1 - Degradation of HiBit-BRD9 in HEK293; conditions: titration up to 10 μM; for DC50: Assay Protocol 1: HiBit-BRD9 in HEK293, 6 h
Method: Assay Protocol 1—Degradation of HiBit-BRD9 in HEK293
HEK293 stably expressing LgBit and containing a HiBit insertion for BRD9 were plated in 384-well tissue culture plates at a density of 8×10^3 per well in a volume of 36 μL and incubated overnight at 37° C. and 5% CO2. Wells were treated with test compounds (11 pt titration up to 10 μM) for 6 h prior to addition of Nano-Glo® Hibit Lytic buffer (1:50 substrate and 1:100 LgBit protein) and reading on a PheraSTAR. Degradation data was plotted and analysed using Prism 8 (Graphpad).

[3] = target: T2, BRD4 (Homo sapiens, UniProt O60885); test: Assay 1 - Degradation of HiBit-BRD4 in HEK293; conditions: HiBit-BRD4 in HEK293, 6 h treatment
T2 construct: HEK293 containing a HiBit insertion for BRD4; endogenous in cells; host or cells: HEK293 with a HiBiT insertion for BRD4
Method: 1.1 Assay 1-Degradation of HiBit-BRD4 in HEK293
HEK293 containing a HiBit insertion for BRD4 were plated in 384-well tissue culture plates at a density of 8×10^4 per well in a volume of 36 μL and incubated overnight at 37° C. and 5% CO2. Wells were treated with test compounds for 6 h prior to addition of the NanoLuc substrate and reading on a […]. Degradation data was plotted and analysed using […] (Graphpad).

Structure (SMILES) | DC50 [1] [nM] | Dmax [1] [%] | further results
COc1cc(-c2cn(C)c(=O)c(C)c2C)cc(OC)c1CN1CC2CC1CN2C(=O)/C(C#N)=C/C(C)(C)C (mixture of isomers) [BRD9b, (E/Z)-2-(5-(2,6-dimethoxy-4-(1,4,5-trimethyl-6-oxo-1,6-dihydropyridin-3-yl)benzyl)-2,5-diazabicyclo[2.2.1]heptane-2-carbonyl)-4,4-dimethylpent-2-enenitrile] | > 200 | – | –
COc1cc(-c2cn(C)c(=O)c(C)c2C)cc(OC)c1CN1CC2CC1CN2C(=O)/C(C#N)=C/c1nccs1 (mixture of isomers) [BRD9i, (E/Z)-2-(5-(2,6-dimethoxy-4-(1,4,5-trimethyl-6-oxo-1,6-dihydropyridin-3-yl)benzyl)-2,5-diazabicyclo[2.2.1]heptane-2-carbonyl)-3-(thiazol-2-yl)acrylonitrile] | > 200 | 30 to 50 | –
COc1cc(-c2cn(C)c(=O)c(C)c2C)cc(OC)c1CN1CC2CC(C1)N2C(=O)/C(C#N)=C/c1cccc(Br)n1 (mixture of isomers) [BRD9m, (E/Z)-3-(6-bromopyridin-2-yl)-2-(3-(2,6-dimethoxy-4-(1,4,5-trimethyl-6-oxo-1,6-dihydropyridin-3-yl)benzyl)-3,6-diazabicyclo[3.1.1]heptane-6-carbonyl)acrylonitrile] | – | ≥ 70 | –
COc1cc(-c2cn(C)c(=O)c(C)c2C)cc(OC)c1CN1C2CC1CN(C(=O)/C(C#N)=C/C1(C(F)(F)F)CCC1)C2 (mixture of isomers) [BRD9p, (E/Z)-2-(6-(2,6-dimethoxy-4-(1,4,5-trimethyl-6-oxo-1,6-dihydropyridin-3-yl)benzyl)-3,6-diazabicyclo[3.1.1]heptane-3-carbonyl)-3-(1-(trifluoromethyl)cyclobutyl)acrylonitrile] | 25 to 200 | 50 to 70 | –
COc1cc(-c2cn(C)c(=O)c(C)c2C)cc(OC)c1C(=O)N1CC2CC1CN2C(=O)/C(C#N)=C/C(C)(C)C (mixture of isomers) [BRD9t, (E/Z)-2-(5-(2,6-dimethoxy-4-(1,4,5-trimethyl-6-oxo-1,6-dihydropyridin-3-yl)benzoyl)-2,5-diazabicyclo[2.2.1]heptane-2-carbonyl)-4,4-dimethylpent-2-enenitrile] | 25 to 200 | – | –
COc1cc(-c2cn(C)c(=O)c(C)c2C)cc(OC)c1CN1C[C@@H](C)N(C(=O)/C(C#N)=C/C(C)(C)C)C[C@@H]1C [BRD9ad, (E)-2-((2R,5S)-4-(2,6-dimethoxy-4-(1,4,5-trimethyl-6-oxo-1,6-dihydropyridin-3-yl)benzyl)-2,5-dimethylpiperazine-1-carbonyl)-4,4-dimethylpent-2-enenitrile] | 25 to 200 | 50 to 70 | –
COc1cc(-c2cn(C)c(=O)c(C)c2C)cc(OC)c1CN1C2CC1CN(C(=O)/C(C#N)=C/c1cccc(C(F)(F)F)n1)C2 [BRD9af, (E)-2-(6-(2,6-dimethoxy-4-(1,4,5-trimethyl-6-oxo-1,6-dihydropyridin-3-yl)benzyl)-3,6-diazabicyclo[3.1.1]heptane-3-carbonyl)-3-(6-(trifluoromethyl)pyridin-2-yl)acrylonitrile] | < 25 | ≥ 70 | –
COc1cc(-c2cn(C)c(=O)c(C)c2C)cc(OC)c1CN1C2CC1CN(C(=O)/C(C#N)=C/C1(F)CC1)C2 [BRD9ag, (E)-2-(6-(2,6-dimethoxy-4-(1,4,5-trimethyl-6-oxo-1,6-dihydropyridin-3-yl)benzyl)-3,6-diazabicyclo[3.1.1]heptane-3-carbonyl)-3-(1-fluorocyclopropyl)acrylonitrile] | < 25 | ≥ 70 | –
COc1cc(-c2cn(C)c(=O)c(C)c2C)cc(OC)c1CN1CCN(C(=O)C2CC(C)CN(C(=O)/C(C#N)=C/C(C)(C)C)C2)CC1 (stereo not shown) [BRD9ba, (E)-2-(3-(4-(2,6-dimethoxy-4-(1,4,5-trimethyl-6-oxo-1,6-dihydropyridin-3-yl)benzyl)piperazine-1-carbonyl)-5-methylpiperidine-1-carbonyl)-4,4-dimethylpent-2-enenitrile] | < 25 | ≥ 70 | –
COc1cc(-c2cn(C)c(=O)c(C)c2C)cc(OC)c1CN1CCN(C(=O)/C(C#N)=C/c2nccs2)CC1 [BRD9g, (E/Z)-2-(4-(2,6-dimethoxy-4-(1,4,5-trimethyl-6-oxo-1,6-dihydropyridin-3-yl)benzyl)piperazine-1-carbonyl)-3-(thiazol-2-yl)acrylonitrile] | – | – | DC50 [2]: > 200 nM; Dmax ([2]; HEK293, Assay Protocol 1: HiBit-BRD9 in HEK293, 6 h): 30 to 50%
COc1cc(-c2cn(C)c(=O)c(C)c2C)cc(OC)c1C(=O)N1CCN(C(=O)/C(C#N)=C/C(C)(C)C)CC1 [BRD9s, (E/Z)-2-(4-(2,6-dimethoxy-4-(1,4,5-trimethyl-6-oxo-1,6-dihydropyridin-3-yl)benzoyl)piperazine-1-carbonyl)-4,4-dimethylpent-2-enenitrile] | 25 to 200 | – | –
COc1cc(-c2cn(C)c(=O)c(C)c2C)cc(OC)c1C(=O)N1CCCN(C(=O)/C(C#N)=C/C(C)(C)C)CC1 [BRD9v, (E/Z)-2-(4-(2,6-dimethoxy-4-(1,4,5-trimethyl-6-oxo-1,6-dihydropyridin-3-yl)benzoyl)-1,4-diazepane-1-carbonyl)-4,4-dimethylpent-2-enenitrile] | 25 to 200 | – | –
COc1cc(-c2cn(C)c(=O)c3ccsc23)cc(OC)c1CN1CCN(C(=O)/C(C#N)=C/C(C)(C)C)CC1 [BRD9w, (E/Z)-2-(4-(2,6-dimethoxy-4-(5-methyl-4-oxo-4,5-dihydrothieno[3,2-c]pyridin-7-yl)benzyl)piperazine-1-carbonyl)-4,4-dimethylpent-2-enenitrile] | – | – | DC50 [2]: 25 to 200 nM
CC(=O)N1c2ccc(-c3ccc(C(=O)NCCOCCOCCOCCOCCOCCNC(=O)[C@@H]4CN(C(=O)/C(C#N)=C/c5nccs5)C[C@H]4c4ccccc4)cc3)cc2[C@H](Nc2ccc(Cl)cc2)C[C@@H]1C [Example 15u] | – | – | DC50 [3]: 25 to 200 nM; Dmax [3]: 50 to 70%
CC(=O)N1c2ccc(-c3ccc(C(=O)NCCOCCOCCOCCOCCOCCNC(=O)[C@@H]4CN(C(=O)/C(C#N)=C/c5ccn(C)n5)C[C@H]4c4ccccc4)cc3)cc2[C@H](Nc2ccc(Cl)cc2)C[C@@H]1C [Example 15w] | – | – | DC50 [3]: 25 to 200 nM; Dmax [3]: 30 to 50%
CC(=O)N1c2ccc(-c3ccc(C(=O)NCCOCCOCCOCCOCCOCCNC(=O)[C@@H]4CN(C(=O)/C(C#N)=C/c5ccc(F)cc5)C[C@H]4c4ccccc4)cc3)cc2[C@H](Nc2ccc(Cl)cc2)C[C@@H]1C [Example 15x] | – | – | DC50 [3]: > 200 nM; Dmax [3]: 30 to 50%
COc1ccc([C@@H]2CN(C(=O)/C(C#N)=C/c3nccs3)C[C@H]2C(=O)NCCOCCOCCOCCOCCOCCNC(=O)c2ccc(-c3ccc4c(c3)[C@H](Nc3ccc(Cl)cc3)C[C@H](C)N4C(C)=O)cc2)cc1 [Example 15z] | – | – | DC50 [3]: 25 to 200 nM; Dmax [3]: 30 to 50%
